The source of these data is patent US10493030B2 (priority 2015, dated 2019).

SMILES strings stand for the structures.

In one data set the test system is Jurkat-LAT-GFP. The experiment in a line: in vitro model of HIV-1 latency, Jurkat-LAT-GFP. In kind it is cell-based.
A further data set concerns classical PKCs pathways. As to the kind of experiment: cPKC translocation and signalling pathway activation in T cells. The data set is classed as cell-based. The source says:
Low concentrations of Bryostatin-1 activate the cPKC-Ras-Raf-ERK pathway and synergize with an HDAC inhibitor, valproic acid (VPA), to activate the transcription factor SP1.

In a further data set the test system is transcription factor SP1. As to the kind of experiment: activation of transcription factor SP1, combination with valproic acid. In kind it is cell-based. The following applies: low concentrations; with HDAC inhibitor valproic acid.
The test system of the next data set is T cells. The experiment in a line: transcriptome studies in T cells. The data set is classed as cell-based. The conditions noted are these: 10 and 100 nM.
Data set [1] has as its system PBMC isolated from HIV-1 patients. As to the kind of experiment: HIV-1 latency ex vivo in PBMC isolated from HIV-1 patients. The data set is classed as cell-based, human.
The nature of data set [2]: Phase I clinical study in HIV-1 patients (NCT02269605). In kind it is in vivo, human. The conditions noted are these: doses of 10 and 20 μg/m2.
Data set [3] relates to human HIV-1 receptors CD4 and CXCR4. The following applies: low concentrations; cited from earlier work.
Another data set concerns HIV-1. The conditions noted are these: low concentrations; cited from earlier work.
The subject of the next data set is HIV-1 latency. The following applies: very low concentrations (1-10 nM); in vitro; cited from earlier work.
A further data set relates to HIV. The following applies: some HIV-infected patients; cited from earlier work.
Where [4] appears, read: concentrations higher than 10 nM.

In the case of `CCC/C=C/C=C/C(=O)O[C@H]1/C(=C/C(=O)OC)C[C@H]2C[C@H]([C@@H](C)O)OC(=O)C[C@H](O)C[C@@H]3C[C@H](OC(C)=O)C(C)(C)[C@](O)(C[C@@H]4C/C(=C/C(=O)OC)C[C@H](/C=C/C(C)(C)[C@]1(O)O2)O4)O3` [Bryostatin-1], the “reactivation of HIV-1 latency in T cells” value in the data set on Jurkat-LAT-GFP (Jurkat-LAT-GFP, via classical PKCs pathways) is “re-activates HIV-1 latency”. The “reactivation of HIV-1 latency” value with Jurkat-LAT-GFP (lower concentrations (10 nM), ERK activation and nuclear phosphorylation of p65) was “fully reactivates HIV-1 latency”. Moreover, in the data set with classical PKCs pathways (setting [4]), the “activation of NF-κB and MAPKs (JNK and ERK) pathways” value is “activated the canonical NF-κB and MAPKs (JNK and ERK) pathways”; the “translocation of cPKCs” value is on record as “induced translocation of cPKCs to the plasma membrane”. Besides, the “translocation of cPKCs and Ras-GRP1” value with classical PKCs pathways (lower concentrations (10 nM)) was “translocated cPKCs and Ras-GRP1 to the endoplasmic reticulum”. Also, the “synergy with valproic acid (VPA) to activate the transcription factor SP1” value with transcription factor SP1 was “synergize”. Further, the “gene expression in T cells, low vs. high concentrations” value with T cells is recorded as “differentially regulate gene expression”. Moreover, in [1], the “HIV-1 latency ex vivo” value was “antagonized HIV-1 latency”. Also, in [2], the adverse events entry is on record as “did not induced significant adverse events”. For the same molecule, the “expression of the human HIV-1 receptors CD4 and CXCR4” value in data set [3] is “down-regulated”. In addition, the “de novo HIV-1 infection” value with HIV-1 is given as “prevent de novo HIV-1 infection”. Moreover, the “synergy with HDAC inhibitors such as valproic acid to antagonise HIV-1 latency” value in the data set with HIV-1 latency was “synergizes”.
With `O=C(CCCCCCC(=O)Nc1ccccc1)NO` [Vorinostat], the “HIV transcription from latency” value in the data set with HIV was “significant and sustained increase in HIV transcription from latency”.
